Experimental data: patent US20150272959A1, “SMALL MOLECULES AS ANTI-HIV AGENTS THAT DISRUPT VIF SELF-ASSOCIATION AND METHODS OF USE THEREOF” (OYAGEN, INC., priority 2012, published 2015)
Values joined by “and” are separate entries in the source; they are usually repeats but may differ in a detail not shown here. Equal entries are not always repeated. Where two headings read alike, the source gives them in different places.

Key:
[1] = system: A3G in the viral particle; assay: A3G in the viral particle, western blot A3G:p24 ratio (FIG. 18); type: cell-based, HIV; details: for increase of A3G:p24 ratio over the negative control: parallel to Dry Powder Infectivities B & C, 30 ng p24
Experimental: Parallel to Dry Powder Infectivities B & C, viral particles (30 ng p24) were pelleted through a 20% sucrose cushion, resolved by SDS-PAGE and western blotted for VS-tagged A3G and p24. The yield of A3G relative to p24 (as a virus loading control) was quantified by scanning densitometry to validate the antiviral mechanism. The first two lanes are the −Vif virus with A3G (positive control) and the +Vif virus with A3G (negative control). The A3G:p24 Ratio for the negative control was set to 1 (Ratios listed under the westerns). Chemistry 24 had 5 and 15 fold increases over the negative control. On the other hand, chemistry 9 had increases of 55 and 76-fold over the control, both higher than the positive control at 48-fold above the negative control. However, the positive control has lower overall infectivity and differentials than 9.

[2] = system: Vif-dependent A3G degradation; assay: Vif-dependent A3G-mCherry degradation assay in 293T cells; type: cell-based; details: single dose 8 μM
Experimental: A3G-mCherry is stably expressed in 293T cells under puromycin selection. 50 ng of Vif was transiently transfected into the cells in 384-well format with Turbofect. 4 hours after transfection the chemistries were added to cells in a range from (0.5-16 μM). 24 hours after chemistries were added the mCherry signal was read on a Biotek Synergy 4 plate reader. The signal from cells plated but not transfected with Vif was averaged and set at 100% (left image), and cells transfected with Vif and treated with DMSO only were averaged and set at 0% (right image). A chemistry that inhibits Vif's ability to chaperone A3G to the proteasomal degradation pathway would result in an increased mCherry signal compared to the DMSO only control, and any signal that is much higher than the no Vif positive control is likely to be due to autofluorescence from the chemistry itself.
To simplify the numbering the compounds were numbered from 1 to 32 in the same order as plated in the original vials and listed on the original Dry Powder list sent with the vials by the Broad. […] The first compound is 02-16, which is the lead from the previous OyaGen screen mentioned above with strong A3G dependency in live virus tests and the last data set are the DMSO controls that were averaged out to set the 0% mark. […]

[3] = system: pseudotyped HIV; type: cell-based; details: for efficacy: all concentrations tested below 15 μM; for toxicity: concentrations higher than 15 μM
Description: This figure is a visual representation of how the single cycle infectivity experiments were done. They are in 6 well format in order to obtain enough virus to do viral particle purifications for western blot detection of A3G in the viral particle. […] The wild type HIV proviral vector codes for all HIV genes except nef (replaced with EGFP) and env. […] Alternatively, in the absence of A3G, both wild type and ΔVif viruses should have high infectivity.
[…]. Viral load was then normalized with a p24 ELISA (Perkin Elmer).
The infections utilized TZM-bl reporter cells that contain stably integrated luciferase that is driven by the HIV-LTR promoter, therefore luciferase is expressed upon successful HIV infection. Triplicate infections in 96-well plates at 10,000 cells/well with 500 pg p24/well proceeded for 48 hours before the addition of SteadyGlo™ Reagent (Promega) to each well for 30 minutes. Luminescence was measured as a quantitative metric for changes in infectivity with each compound as compared to controls, in which relative luminescence units (RLU) with no chemistry are set to 100%.
This figure is intended to highlight where in the experimental method negative results occurred. Although all compounds to this point in screening have shown little to no toxicity in the Primary and Secondary Screens, when cells are challenged with viral production they are more sensitive to toxicity from chemistries since cells have to combat viral proteins overtaking of cellular pathways and any adverse effects from the chemistries. […] If the producer cells are healthy and make enough virus for infectivity testing there are three possible outcomes and two are undesirable for any chemistry to go forward into probe development. […] This is best represented as a differential between infectivity in the presence of Vif and A3G vs the absence of Vif and A3G.
Each compound was tested at multiple concentrations in separate infectivity assays. The concentrations are listed on the top, followed by the infectivity in relation to the no chemistry control for both + and −Vif and A3G conditions, and the large number on the bottom is the differential between infectivity of +Vif virus and with A3G cotransfected compared to −Vif virus without A3G (purple numbers are for good values and blue numbers are for weak values). […] For compound 9 although the drop in infectivity compared to the no chemistries controls are not as low as for compounds 21 and 24 for +Vif and A3G infectivities, there is an increase in the −Vif and A3G infectivities compared to control making the differential between the +/−Vif and A3G virus lower than 24 and 21 at 0.33 and 0.44 in Dry Powder Infectivities B&C. Note that normalization for the viral load with p24 only accounts for total viral particles in the media, but is unable to discriminate between mature and immature virions. If a chemistry has an effect on % of mature virions compared to the no chemistry control there could be an impact on viral infectivity values compared to control. Therefore, although it is crucial to see lower infectivity than the no chemistry control the more critical number is the differential between +/−Vif and A3G, because both those virial preps contain the chemistry and would have similar effects on the viral populations going into the infectivity assay. On the other hand, compound 21 has +Vif and A3G infectivity at 56% at 15 μM but the −Vif and A3G infectivity is only at 63% making the differential only 0.88.

[4] = system: CEMSS (-A3G) cells; type: cell-based
Description: (§1) All the screens to this point utilized 293T cells and the Brd. […] The rationale is to set a CC50 standard in T cells to measure against for medicinal chemistry derived compounds created from these scaffolds going forward. CEMSS (−A3G) and A3.01 (+A3G) were selected, because they are both CEM derived T cell lines that can be used to compare in live virus spreading infections for A3G-dependency.

[5] = system: A3.01 (+A3G) cells; type: cell-based
Description: as §1

[6] = 15 μM, relative to no chemistry control

Row | SMILES | A3G in the viral particles (in words) [1] | increase of A3G:p24 ratio over the negative control [1] | DMSO stock test [2] | +/-Vif and A3G differential (in words) [3] | -Vif and A3G infectivities compared to control [3] | antiviral activity [3] | differential between +/-Vif and A3G virus infectivity ([3]; Dry Powder Infectivity B) | differential between +/-Vif and A3G virus infectivity ([3]; Dry Powder Infectivity C) | efficacy [3] | toxicity [3] | CC50 [4] [µM] | CC50 [5] [µM] | differential between +/-Vif and A3G infectivity ([3]; 15 μM) | +Vif and A3G infectivity [3, 6] [%] | -Vif and A3G infectivity [3, 6] [%] | toxic effects ([3]; above 30 μM) | differential between +/-Vif and A3G infectivity ([3]; above 30 μM, Dry Powder infectivity A) | differential between +/-Vif and A3G infectivity ([3]; above 30 μM, Dry Powder infectivity C)
1 | Cc1nnc2ccc(-c3cccc(NS(=O)(=O)c4cc(F)ccc4F)c3)nn12 [Compound 9] | increase in A3G | 55 fold and 76 fold | low | differential between +/−Vif and A3G infectivities | increase | antiviral activity | 0.33 | 0.44 | displayed efficacy | slight toxicity | > 25 | > 25 |  |  |  |  |  | 
2 | O=C(NC1(C(F)(F)F)Oc2ccc(Cl)cc2O1)N1CCC2(CC1)OCCO2 (stereo not shown) [Compound 21] | increase in A3G | 4 fold and 5 fold |  | differential between +/−Vif and A3G infectivities |  | antiviral activity |  |  |  |  | > 25 | > 25 | 0.88 | 56 | 63 | no toxic effects | 0.65 | 0.57
3 | FC(F)(F)c1nnc2c3ccccc3c(Cl)nn12 [Compound 24] | increase in A3G |  |  | differential between +/−Vif and A3G infectivities |  | antiviral activity |  |  | displayed efficacy | slight toxicity | 9.7 | 4.9 |  |  |  |  |  | 
